A short description of the data set: Pharmacokinetic evaluation of oral thin films in dogs (midazolam in plasma, LC-MS/MS). The format is in vivo, Marshall Beagle dogs. The following applies: from cyclodextrin-containing films.

From patent US20260284075A1, “UNIT DOSAGE COMPOSITION COMPRISING MIDAZOLAM” (B. Braun Melsungen AG, priority 2023, published 2026) come the findings set out here.

A value given as a limit tells only on which side of the number the result lay.

Procedure: To investigate the local tolerability and pharmacokinetics of the four oral thin films prepared according to Example 1, the oral thin films containing 3.0 mg of midazolam HCl (corresponding to 2.7 mg of midazolam free base) were subsequently applied to 6 non-naïve Marshall Beagle dogs (3 male weighing 8.6-11 kg and 3 female weighing 7.5-8.1 kg) with at least 3 days washout phase between the treatments. DORMICUM® 7.5 mg tablets and a Midazolam 5 mg/mL solution for injection/infusion (obtained from B. Braun) were used as reference. The dogs were fastened before dose administration and during the period of the experiment. On the days of treatment, the animals were offered their first daily meal after collection of the blood sample 2 hours after dose, and the second meal of the day was given after collection of the blood sample 6 hours after dose.
Blood samples were taken from the dogs before the treatment, and 2, 5, 10, 30, 60, 120, and 360 minutes after the dose administration. Blood samples of approximately 2 mL were collected from the saphenous vein. […]
The concentration of midazolam in the blood samples was determined using validated liquid chromatography-mass spectrometry (LC-MS/MS) methods. […] The concentration of analytes in unknown samples was calculated using the analyte/internal standard area ratios. […] It was well mixed and the samples analyzed by using LC-MS/MS.

With `Cc1ncc2n1-c1ccc(Cl)cc1C(c1ccccc1F)=NC2` [midazolam, 8-chloro-6-(2-fluoropheny)-1-methyl-4H-imidazo[1,5-α][1,4]benzodiazepine], the “time within which midazolam is absorbed through the oral mucosa” value is not above 10 min.
